Data reported in patent US20230002352A1, “SULFONAMIDE DERIVATIVES AS CTPS1 INHIBITORS” (Step Pharma S.A.S., priority 2019, published 2023).

Molecular target: T1, human CTPS1 (Homo sapiens, UniProt P17812)
T1 construct: purchased Proteros biostructures GmbH
T1 sequence (P17812 1-591): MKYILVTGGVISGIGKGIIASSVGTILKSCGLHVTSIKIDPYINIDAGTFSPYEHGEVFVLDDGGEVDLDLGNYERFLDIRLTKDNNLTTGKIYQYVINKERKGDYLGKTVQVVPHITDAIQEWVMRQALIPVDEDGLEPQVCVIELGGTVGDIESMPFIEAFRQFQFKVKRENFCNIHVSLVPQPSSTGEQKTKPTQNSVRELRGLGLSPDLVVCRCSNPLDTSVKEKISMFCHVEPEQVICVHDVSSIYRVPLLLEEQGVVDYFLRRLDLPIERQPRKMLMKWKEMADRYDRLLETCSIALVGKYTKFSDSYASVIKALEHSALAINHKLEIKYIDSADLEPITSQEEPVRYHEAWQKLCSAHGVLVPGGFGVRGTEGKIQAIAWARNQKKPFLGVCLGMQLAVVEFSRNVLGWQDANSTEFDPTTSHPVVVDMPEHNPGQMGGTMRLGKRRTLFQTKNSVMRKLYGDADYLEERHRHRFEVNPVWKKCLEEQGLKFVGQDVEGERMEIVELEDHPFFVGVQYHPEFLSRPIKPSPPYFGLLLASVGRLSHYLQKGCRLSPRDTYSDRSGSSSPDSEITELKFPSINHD
Assay: Human CTPS1 enzyme inhibition (ADP-Glo Max assay)
Type: biochemical
Details: Table 23; ADP-Glo Max assay; read-out: CTPS1 (Human CTPS1 Enzyme Inhibition data grouped by potency range, IC50)
Procedure: Biological Example 1—Human CTPS1 Enzyme Inhibition
The enzyme inhibitory activities of compounds invented against the target of interest were determined using the ADP-Glo™ Max assay (Promega, UK). Assays for human CTPS1 were performed in 1× assay buffer containing 50 mM Tris, 10 mM MgCl2, 0.01% Tween-20, pH to 8.0 accordingly. Finally, immediately before use, L-cysteine was added to the 1× assay buffer to a final concentration of 2 mM. All reagents are from Sigma-Aldrich unless specified otherwise. Human full length active C-terminal FLAG-Hiss-tag CTPS1 (UniProtKB-P17812, CTPS[1-591]-[…]) was obtained from Proteros biostructures GmbH.
3× human CTPS1 protein was prepared in 1× assay buffer to the final working protein concentration required for the reaction. A 2 uL volume per well of 3× human CTPS1 protein was mixed with 2 uL per well of 3× test compound (compound prepared in 1× assay buffer to an appropriate final 3× compound concentration respective to the concentration response curve designed for the compounds under test) for 10 minutes at 25° C. The enzymatic reaction was then initiated by addition of a 2 uL per well volume of a pre-mixed substrate mix (UltraPure ATP from ADP-Glo™ Max kit (0.31 mM), GTP (0.034 mM), UTP (0.48 mM) and L-glutamine (0.186 mM)) and the mixture was incubated for an appropriate amount of time within the determined linear phase of the reaction at 25° C. under sealed plate conditions with constant agitation at 500 revolutions per minute (rpm). ADP-Glo™ Max reagent was added for 60 minutes (6 μL per well) and subsequently ADP-Glo™ Max development reagent was added for 60 minutes (12 uL per well) prior to signal detection in a microplate reader (EnVision® Multilabel Reader, Perkin Elmer). Following each reagent addition over the course of the assay, assay plates were pulse centrifuged for 30 seconds at 500 rpm.
In all cases, the enzyme converts ATP to ADP and the ADP-Glo™ Max reagent subsequently depletes any remaining endogenous ATP in the reaction system. The ADP-Glo™ Max detection reagent converts the ADP that has been enzymatically produced back into ATP and using ATP as a substrate together with luciferin for the enzyme luciferase, light is generated which produces a detectable luminescence. […] The percentage inhibition produced by each concentration of compound was calculated using the equation shown below: […]
Percentage inhibition was then plotted against compound concentration, and the 50% inhibitory concentration (IC50) was determined from the resultant concentration-response curve.

Row | Structure (SMILES) | IC50
1 | CC(C)(C(=O)Nc1ccc(-c2cccc(C#N)c2)cc1)c1ccnc(NS(=O)(=O)C2CC2)n1 [Example P62] | 1000 to 10000 nM
2 | CCOc1cccc(-c2ccc(NC(=O)C(C)(C)c3ccnc(NS(=O)(=O)C4CC4)n3)cc2)c1 [Example P63] | 10000 to 20000 nM
3 | CC(C)(C(=O)Nc1ccc(-c2cnccn2)cc1)c1ccnc(NS(=O)(=O)C2CC2)n1 [Example P71] | 1000 to 10000 nM
4 | CC(C)Oc1cncc(-c2ccc(NC(=O)C(C)(C)c3ccnc(NS(C)(=O)=O)n3)c(F)c2)c1 [Example P77] | 1000 to 10000 nM
5 | Cc1cc(-c2cncc(C(F)(F)F)n2)ccc1NC(=O)C(C)(C)c1ccnc(NS(C)(=O)=O)n1 [Example P79] | 100 to 1000 nM
6 | CC(C)(C(=O)Nc1ccc(-c2cncc(C(F)(F)F)n2)cc1)c1ccnc(NS(C)(=O)=O)n1 [Example P80] | 100 to 1000 nM
7 | CCOc1cncc(-c2ccc(NC(=O)C(C)(C)c3ccnc(NS(=O)(=O)C(C)(C)C)n3)cc2)n1 [Example P82] | 1000 to 10000 nM
8 | CC(C)c1cncc(-c2ccc(NC(=O)C(C)(C)c3ccnc(NS(=O)(=O)C4CC4)n3)nc2)n1 [Example P116, 2-(2-(Cyclopropanesulfonamido)pyrimidin-4-yl)-N-(5-(6-isopropylpyrazin-2-yl)pyridin-2-yl)-2-methylpropanamide] | 100 to 1000 nM
9 | C=C(C)c1cncc(-c2ccc(NC(=O)C(C)(C)c3ccnc(NS(=O)(=O)C4CC4)n3)nc2)n1 [Example P122, 2-(2-(cyclopropanesulfonamido)pyrimidin-4-yl)-2-methyl-N-(5-(6-(prop-1-en-2-yl)pyrazin-2-yl)pyridin-2-yl)propanamide] | 100 to 1000 nM
10 | CCOc1cncc(-c2ccc(NC(=O)C(C)(C)c3cc(C)nc(NS(=O)(=O)C4CC4)n3)nc2)n1 [Example P123] | 100 to 1000 nM
11 | CCOc1cncc(-c2ccc(NC(=O)C(C)(C)c3cc(C(F)(F)F)nc(NS(=O)(=O)C4CC4)n3)nc2)n1 [Example P124] | 100 to 1000 nM
12 | CCOc1cncc(-c2ccc(NC(=O)C(C)(C)c3cc(C)nc(NS(=O)(=O)C4CC4)n3)c(F)c2)n1 [Example P129] | 100 to 1000 nM
13 | CCOc1cncc(-c2ccc(NC(=O)C(C)(C)c3cc(C(F)(F)F)nc(NS(=O)(=O)C4CC4)n3)c(F)c2)n1 [Example P130] | 100 to 1000 nM
14 | C=C(C)c1cncc(-c2ccc(NC(=O)C(C)(C)c3ccnc(NS(=O)(=O)C4CC4)n3)cc2)n1 [Example P131] | 100 to 1000 nM
15 | CN(C)c1cncc(-c2ccc(NC(=O)C(C)(C)c3ccnc(NS(=O)(=O)C4CC4)n3)cc2)n1 [Example P133] | 1000 to 10000 nM
16 | CCOc1cncc(-c2ccc(NC(=O)C(C)(C)c3cc(C)nc(NS(=O)(=O)C4CC4)n3)cc2)n1 [Example P134] | 100 to 1000 nM
17 | CCOc1cncc(-c2ccc(NC(=O)C(C)(C)c3cc(C(F)(F)F)nc(NS(=O)(=O)C4CC4)n3)cc2)n1 [Example P135] | 100 to 1000 nM
18 | CCOc1cncc(-c2ccc(NC(=O)C3(c4ccnc(NS(C)(=O)=O)n4)CCNCC3)nc2)n1 [Example P138] | 100 to 1000 nM
19 | CCOc1cncc(-c2ccc(NC(=O)C3(c4ccnc(NS(=O)(=O)C5CC5)n4)CCN(C(=O)OC(C)(C)C)CC3)nc2)n1 [Example P139] | 100 to 1000 nM
20 | CCOc1cncc(-c2ccc(NC(=O)C3(c4ccnc(NS(=O)(=O)C5CC5)n4)CCNCC3)nc2)n1 [Example P140] | 100 to 1000 nM
21 | CCOc1cncc(-c2ccc(NC(=O)C3(c4ccnc(NS(=O)(=O)C5CC5)n4)CN(C(=O)OC(C)(C)C)C3)nc2)n1 [Example P141] | 100 to 1000 nM
22 | CCOc1cncc(-c2ccc(NC(=O)C3(c4ccnc(NS(C)(=O)=O)n4)CCN(C(=O)OC(C)(C)C)CC3)nc2)n1 [Example P142] | 100 to 1000 nM
23 | CCOc1cncc(-c2ccc(NC(=O)C(C)(CCOC)c3ccnc(NS(C)(=O)=O)n3)nc2)n1 (stereo not drawn) [Example P147] | 100 to 1000 nM
24 | O=C(Cc1cccc(NS(=O)(=O)C2CC2)n1)Nc1ccc(-c2cncc(Cl)c2)cc1 [Example P167] | 100 to 1000 nM
25 | N#Cc1cncc(-c2ccc(NC(=O)Cc3cccc(NS(=O)(=O)C4CC4)n3)cc2)c1 [Example P168] | 100 to 1000 nM
26 | O=C(Cc1cccc(NS(=O)(=O)C2CC2)n1)Nc1ccc(-c2cncc(F)c2)cc1 [Example P169] | 100 to 1000 nM
27 | COc1cncc(-c2ccc(NC(=O)Cc3cccc(NS(=O)(=O)C4CC4)n3)cc2)c1 [Example P170] | 100 to 1000 nM
28 | O=C(Cc1cccc(NS(=O)(=O)C2CC2)n1)Nc1ccc(-c2cccnc2)cc1 [Example P171] | 1000 to 10000 nM

Now from value to compound:

Row | IC50 | Structure (SMILES)
29 | ≤ 100 nM | CC(C)(C(=O)Nc1ccc(-c2cncc(C(F)(F)F)n2)cc1)c1ccnc(NS(=O)(=O)C2CC2)n1 [Example P64]
30 | ≤ 100 nM | CCOc1cncc(-c2ccc(NC(=O)C(C)(C)c3ccnc(NS(=O)(=O)C4CC4)n3)cc2)n1 [Example P65]
31 | 100 to 1000 nM | CC(C)(C(=O)Nc1ccc(-c2cncc(OC3CC3)n2)cc1)c1ccnc(NS(=O)(=O)C2CC2)n1 [Example P66]
32 | ≤ 100 nM | CC(C)Oc1cncc(-c2ccc(NC(=O)C(C)(C)c3ccnc(NS(=O)(=O)C4CC4)n3)cc2)n1 [Example P67]
33 | 100 to 1000 nM | CCOc1cncc(-c2ccc(NC(=O)C(C)(C)c3ccnc(NS(=O)(=O)C4(C)CC4)n3)cc2)n1 [Example P69]
34 | 100 to 1000 nM | CCOc1cncc(-c2ccc(NC(=O)C(C)(C)c3ccnc(NS(=O)(=O)CC)n3)c(F)c2)n1 [Example P72]
35 | 100 to 1000 nM | CCS(=O)(=O)Nc1nccc(C(C)(C)C(=O)Nc2ccc(-c3cncc(C(F)(F)F)n3)cc2)n1 [Example P73]
36 | 100 to 1000 nM | CCOc1cncc(-c2cnc(NC(=O)C(C)(C)c3ccnc(NS(C)(=O)=O)n3)c(F)c2)n1 [Example P75]
37 | 100 to 1000 nM | CC(C)Oc1cncc(-c2ccc(NC(=O)C(C)(C)c3ccnc(NS(C)(=O)=O)n3)c(F)c2)n1 [Example P78]
38 | ≤ 100 nM | CCOc1cncc(-c2ccc(NC(=O)C(C)(C)c3ccnc(NS(C)(=O)=O)n3)cc2)n1 [Example P81]
39 | ≤ 100 nM | CCOc1cncc(-c2ccc(NC(=O)C(F)(F)c3ccnc(NS(=O)(=O)C4CC4)n3)c(F)c2)n1 [Example P117]
40 | ≤ 100 nM | CCOc1cncc(-c2ccc(NC(=O)C(C)(C)c3ccnc(NS(=O)(=O)C4CC4)n3)cn2)n1 [Example P126]
41 | ≤ 100 nM | CCOc1cncc(-c2ccc(NC(=O)C3(c4ccnc(NS(=O)(=O)C5CC5)n4)CCOCC3)cc2)n1 [Example P137]
42 | ≤ 100 nM | CCOc1cncc(-c2cnc(NC(=O)C(CCOC)c3ccnc(NS(=O)(=O)C4CC4)n3)c(F)c2)n1 (stereo not drawn) [Example P144]
43 | ≤ 100 nM | CCC(C(=O)Nc1ccc(-c2cncc(Cl)c2)cn1)c1ccnc(NS(=O)(=O)C2CC2)n1 (stereo not drawn) [Example P148]
44 | ≤ 100 nM | CCC(F)(C(=O)Nc1ccc(-c2cncc(Cl)c2)cn1)c1ccnc(NS(=O)(=O)C2CC2)n1 (stereo not drawn) [Example P149]
45 | ≤ 100 nM | CCC(F)(C(=O)Nc1ccc(-c2cncc(C3CC3)n2)cn1)c1ccnc(NS(=O)(=O)C2CC2)n1 (stereo not drawn) [Example P150]
46 | ≤ 100 nM | CCOc1cncc(-c2ccc(NC(=O)C(F)(c3ccnc(NS(=O)(=O)C4CC4)n3)C(C)C)nc2)n1 (stereo not drawn) [Example P152]
47 | ≤ 100 nM | CCOc1cncc(-c2ccc(NC(=O)C(c3ccnc(NS(=O)(=O)C4CC4)n3)C(C)C)c(F)c2)n1 (stereo not drawn) [Example P153]
48 | ≤ 100 nM | CCOc1cncc(-c2ccc(NC(=O)C(c3ccnc(NS(=O)(=O)C4CC4)n3)C(C)C)nc2)n1 (stereo not drawn) [Example P154]
49 | ≤ 100 nM | CCC(C(=O)Nc1ccc(-c2cncc(C3CC3)n2)cn1)c1ccnc(NS(=O)(=O)C2CC2)n1 (stereo not drawn) [Example P156]
50 | ≤ 100 nM | CCC(C(=O)Nc1ccc(-c2cncc(OCC(F)(F)F)n2)cn1)c1ccnc(NS(=O)(=O)C2CC2)n1 (stereo not drawn) [Example P157]
51 | ≤ 100 nM | CCC(C(=O)Nc1ccc(-c2cncc(C3CC3)n2)cc1F)c1ccnc(NS(=O)(=O)C2CC2)n1 (stereo not drawn) [Example P160]
